From ChEMBL document CHEMBL6127014, “Repurposing antiplasmodial leads for cancer: Exploring the antiproliferative effects of N-cinnamoyl-aminoacridines” (Bioorg Med Chem Lett, 2024) come the findings set out here.

pIC50: −log10 of the molar value. The source made the active and inactive calls. The rule behind the calls is not given here.

The test system of data set [1] is MKN-28. Briefly: Antiproliferative activity against human MKN-28 cells assessed as inhibition of cell growth incubated for 2 days by SRB assay. The data set is classed as functional, cell-based. Conditions: MKN-28, 48 h.
Another data set concerns Huh-7. Put plainly: Antiproliferative activity against human Huh-7 cells assessed as inhibition of cell growth incubated for 24 hrs by Alamar blue assay. Type of data set: functional, cell-based. The following applies: Huh-7, 24 h.
For another data set, the system named is HepG2. Briefly: Antiproliferative activity against human HepG2 cells assessed as inhibition of cell growth incubated for 24 hrs by Alamar blue assay. Conditions: HepG2, 24 h. Type of data set: functional, cell-based.
Data set [2] deals with MKN-28. Briefly: Cytotoxicity against human MKN-28 cells assessed as reduction in cell viability at 12.5 to 25 uM incubated for 24 hrs by MTT assay. Type of data set: functional, cell-based. Conditions: dose 12.5-25 µM. In general terms: Tetrazolium assays rely on reduction of a dye to a coloured formazan, in cell work by metabolically active cells.
A short description of data set [3]: Cytotoxicity against HDF cells assessed as reduction in cell viability at 12.5 to 25 uM incubated for 24 hrs by MTT assay. Conditions: human, dose 12.5-25 µM. The data set is classed as toxicity, cell-based.
The subject of data set [4] is MKN-28. Briefly: Cytotoxicity against human MKN-28 cells assessed as reduction in cell viability at 12.5 to 50 uM incubated for 24 hrs by MTT assay. Type of data set: functional, cell-based. The following applies: dose 12.5-50 µM.
Data set [5] in a line: Cytotoxicity against HDF cells assessed as reduction in cell viability at 12.5 to 50 uM incubated for 24 hrs by MTT assay. Type of data set: toxicity, cell-based. Conditions: human, dose 12.5-50 µM.
The subject of data set [6] is MKN-28. Put plainly: Antiproliferative activity against human MKN-28 cells assessed as inhibition of cell growth incubated for 24 hrs by MTT assay. Type of data set: functional, cell-based. Conditions: MKN-28, 24 h.
Data set [7] is described as follows: Cytotoxicity against HDF cells assessed as inhibition of cell growth incubated for 24 hrs by MTT assay. Type of data set: toxicity, cell-based. The following applies: human.
The nature of data set [8]: Selectivity index, ratio of IC50 for cytotoxicity against HDF cells to IC50 for antiproliferative activity against human MKN-28 cells. The data set is classed as toxicity, cell-based. Conditions: HDF cells versus MKN-28 cells, read-out: Ratio IC50.
Data set [9] in a line: Selectivity index, ratio of IC50 for cytotoxicity against HDF cells to IC50 for antiproliferative activity against human Huh-7 cells. The data set is classed as toxicity, cell-based. The following applies: HDF cells versus Huh-7 cells, read-out: Ratio IC50.
A short description of data set [10]: Selectivity index, ratio of IC50 for cytotoxicity against HDF cells to IC50 for antiproliferative activity against human HepG2 cells. Conditions: HDF cells versus HepG2 cells, read-out: Ratio IC50. Type of data set: toxicity, cell-based.

`COc1cccc2c1C(=O)c1c(O)c3c(c(O)c1C2=O)C[C@@](O)(C(=O)CO)C[C@@H]3O[C@H]1C[C@H](N)[C@H](O)[C@H](C)O1` [DOXORUBICIN]: the pIC50 is 6.47 in the data set on MKN-28 [1], 5.22 in the data set with Huh-7 and 6.37 in the data set with HepG2.
Take `COc1cc(NCCCCNC(=O)/C=C/c2ccc(C(F)(F)F)cc2)c2nc3cc(Cl)ccc3cc2c1`: the result with MKN-28 [2] was inactive. For the same compound, in data set [3], the Activity entry was “Non-Toxic”.
In the case of `CCN(CC)CCCNc1c2ccc(Cl)cc2nc2c(NCCCCNC(=O)/C=C/c3cccc(F)c3)cc(OC)cc12`, the result in the data set on MKN-28 [4] was Active. Further, the Activity result in [5] was “Non-Toxic”. The values for the negative logarithm of the IC50 (pIC50) in the data set on MKN-28 [6], in the data set with Huh-7 and in the data set with HepG2 were 4.89, 4.94 and 5.28, respectively. Further, in data set [7], the IC50 at 24 h is above 50 µM. Also, the selectivity ratio in data set [8] was above 3.8; in data set [9] it was above 4.3; in data set [10], above 9.6.
As for `CCN(CC)CCCC(C)Nc1c2ccc(Cl)cc2nc2c(NCCCCNC(=O)/C=C/c3cccc(F)c3)cc(OC)cc12` (stereo not drawn), in the data set on MKN-28 [4], the result was Active. Besides, the Activity entry in data set [5] is listed as “Non-Toxic”. For the same compound, the values for the pIC50 with MKN-28 [6], in the data set with Huh-7 and in the data set on HepG2 were 4.90, 4.89 and 5.30, respectively. In [7], the concentration for half-maximal inhibition (IC50) at 24 h is above 50 µM. Moreover, the selectivity ratio was above 3.9 in data set [8], above 3.9 in [9] and above 9.9 in data set [10].
Consider `CCN(CC)CCCC(C)Nc1c2ccc(Cl)cc2nc2c(NCCCCNC(=O)/C=C/c3ccccc3)cc(OC)cc12` (stereo not drawn), for which the result with MKN-28 [4] was Active. In addition, in data set [5], the Activity entry is on record as “Non-Toxic”. Also, the pIC50 with MKN-28 [6] was 5.00; with Huh-7, 5.14; in the data set with HepG2, 5.38. In data set [7], the IC50 at 24 h was above 50 µM. In addition, the selectivity ratio in data set [8] is above 5; in data set [9], above 6.9; in [10], above 12.
Turning to `COc1cc(NCCCCNC(=O)/C=C/c2ccc(C)cc2)c2nc3cc(Cl)ccc3cc2c1`, the outcome with MKN-28 [2] was inactive. For the same compound, the Activity result in data set [3] is listed as “Non-Toxic”.
Taken in the same sequence, the figures for `COc1cc(NCCCCNC(=O)/C=C/c2ccc([N+](=O)[O-])cc2)c2nc3cc(Cl)ccc3cc2c1` were “inactive” and “Non-Toxic”.
In the same order, the values of `COc1cc(NCCCCNC(=O)/C=C/c2ccc(C(C)C)cc2)c2nc3cc(Cl)ccc3cc2c1` are “inactive” and “Non-Toxic”.
Regarding `CCN(CC)CCCNc1c2ccc(Cl)cc2nc2c(NCCCCNC(=O)/C=C/c3ccc(OC)cc3)cc(OC)cc12`, the outcome in the data set on MKN-28 [4] was Active. For the same compound, the Activity entry in [5] is “Non-Toxic”. Moreover, the pIC50 in the data set with MKN-28 [6] was 4.81; in the data set with Huh-7, 4.91; in the data set with HepG2, 5.27. For the same compound, the 50% inhibitory concentration (IC50) at 24 h in [7] was above 50 µM. The selectivity ratio is above 3.2 in [8], above 4 in data set [9] and above 9.3 in [10].
For `CCN(CC)CCCC(C)Nc1c2ccc(Cl)cc2nc2ccc(OC)cc12` (stereo not drawn) [QUINACRINE], the pIC50 was 5.61 in the data set with MKN-28 [1], 5.06 in the data set on Huh-7 and 5.35 with HepG2.
Consider `CCN(CC)CCCC(C)Nc1c2ccc(Cl)cc2nc2c(NCCCCNC(=O)/C=C/c3ccc(F)cc3)cc(OC)cc12` (stereo not drawn), for which the outcome in the data set with MKN-28 [4] was Active. The Activity result in [5] was “Non-Toxic”. Also, the pIC50 with MKN-28 [6] was 4.90; in the data set on Huh-7, 4.91; in the data set on HepG2 it was 5.12. In addition, in data set [7], the concentration for half-maximal inhibition (IC50) at 24 h is above 50 µM. For the same compound, the selectivity ratio is above 4 in [8], above 4 in data set [9] and above 6.5 in data set [10].
In the case of `CCN(CC)CCCC(C)Nc1c2ccc(Cl)cc2nc2c(NCCCCNC(=O)/C=C/c3ccc(OC)cc3)cc(OC)cc12` (stereo not drawn), in the data set on MKN-28 [4], the outcome was Active. The Activity entry in [5] is recorded as “Non-Toxic”. The pIC50 is 4.86 in the data set with MKN-28 [6], 4.92 in the data set with Huh-7 and 5.48 in the data set with HepG2. For the same compound, the IC50 at 24 h in data set [7] is above 50 µM. In addition, the results for the selectivity ratio in [8], in data set [9] and in [10] were above 3.6, above 4.1 and above 15, respectively.
In the case of `COc1cc(NCCCCNC(=O)/C=C/c2ccc(F)cc2)c2nc3cc(Cl)ccc3cc2c1`, the result in the data set on MKN-28 [2] was inactive. In addition, the Activity result in data set [3] is on record as “Non-Toxic”.
Taken in the same sequence, the figures for `CNc1ccc(/C=C/C(=O)NCCCCNc2cc(OC)cc3cc4ccc(Cl)cc4nc23)cc1` were “inactive” and “Non-Toxic”.
Consider `COc1cc(NCCCCNC(=O)/C=C/c2cccc(Br)c2)c2nc3cc(Cl)ccc3cc2c1`, for which the outcome in the data set with MKN-28 [2] was inactive. The Activity result in [3] is recorded as “Non-Toxic”.
`COc1cc(NCCCCNC(=O)/C=C/c2ccccc2)c2nc3cc(Cl)ccc3cc2c1`: the outcome with MKN-28 [2] was inactive. Moreover, in data set [3], the Activity entry was “Non-Toxic”.
As for `CCN(CC)CCCNc1c2ccc(Cl)cc2nc2c(NCCCCNC(=O)/C=C/c3ccccc3)cc(OC)cc12`, the outcome with MKN-28 [4] was Active. The Activity result in [5] was “Non-Toxic”. The pIC50 in the data set on MKN-28 [6] is 4.81; in the data set with Huh-7 it was 4.92; in the data set on HepG2 it was 5.39. For the same compound, the half-inhibitory concentration (IC50) at 24 h in data set [7] was above 50 µM. The selectivity ratio in data set [8] was above 3.2; in data set [9], above 4.1; in data set [10], above 12.2.
For the compound `COc1cc(NCCCCNC(=O)/C=C/c2ccc(OC)c(OC)c2)c2nc3cc(Cl)ccc3cc2c1`, in the data set with MKN-28 [2], the outcome was inactive. Also, in data set [3], the Activity result is “Non-Toxic”.
In the same order, the values of `COc1cc(NCCCCNC(=O)/C=C/c2cccc(F)c2)c2nc3cc(Cl)ccc3cc2c1` are “inactive” and “Non-Toxic”.
For the compound `CCN(CC)CCCNc1c2ccc(Cl)cc2nc2c(NCCCCNC(=O)/C=C/c3ccc(F)cc3)cc(OC)cc12`, in the data set on MKN-28 [4], the result was Active. Moreover, the Activity result in data set [5] is listed as “Non-Toxic”. The pIC50 is 4.91 in the data set with MKN-28 [6], 4.95 with Huh-7 and 5.20 in the data set on HepG2. For the same compound, the IC50 at 24 h in data set [7] is above 50 µM. The selectivity ratio in data set [8] was above 4.1; in data set [9] it was above 4.5; in data set [10] it was above 7.9.

For orientation: pIC50 means the negative decadic logarithm of the IC50, by convention in mol/L. As a reminder, the IC50 is the concentration that inhibits the measured activity by half.
